We go through 18 compounds from PubChem BioAssay AID248 (DTP/NCI, 2004).

“And” between values parts separate entries of the source, which are not always exact repeats. Equal entries are not always repeated. Inconclusive results and toxic doses are left out.

In this experiment the test system is L1210 leukemia ip in BDF1 mice, survival T/C. The experiment can be described thus: NCI In Vivo Anticancer Drug Screen. Data for tumor model L1210 Leukemia (intraperitoneal) in B6D2F1 (BDF1) mice. Conditions: endpoint: mean survival time, higher = longer survival. In short, it runs like this: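 Mice bearing the transplanted tumor received compound or vehicle. Survival of the treated group was divided by that of the vehicle-treated control group to give the ratio.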

Setting [1] is: dose: 200.0 mg/kg/injection, schedule: Q04DX003 (ip), vehicle: Klucel (hydroxypropylcellulose) (HPC).
The mark [2] stands for this setting: dose: 400.0 mg/kg/injection, schedule: Q04DX003 (ip), vehicle: Klucel (hydroxypropylcellulose) (HPC).
[3] abbreviates: dose: 100.0 mg/kg/injection, schedule: Q01DX001 (ip), vehicle: saline.
[4] abbreviates: dose: 200.0 mg/kg/injection, schedule: Q01DX001 (ip), vehicle: saline.
[5] abbreviates: dose: 400.0 mg/kg/injection, schedule: Q01DX001 (ip), vehicle: saline.
[6] abbreviates: dose: 50.0 mg/kg/injection, schedule: Q01DX001 (ip), vehicle: saline.
Where [7] appears, read: dose: 100.0 mg/kg/injection, schedule: Q01DX009 (ip), vehicle: Klucel (hydroxypropylcellulose) (HPC).
Setting [8] is: dose: 100.0 mg/kg/injection, schedule: Q04DX003 (ip), vehicle: Klucel (hydroxypropylcellulose) (HPC).
Where [9] appears, read: dose: 200.0 mg/kg/injection, schedule: Q01DX009 (ip), vehicle: Klucel (hydroxypropylcellulose) (HPC).

With `NNC(=S)Nc1ccccc1`, the T/C (dose: 5.0 mg/kg/injection, schedule: Q01DX009 (ip), vehicle: saline with Tween-80) is 98 % of control.

For `COC(=O)C1=C2Nc3ccccc3C23CCN2CC4(CC5CC67CCOC6CCN6CCC8(c9cccc(OC)c9N(C4)C58O)C67)C4OCCC4(C1)C23` (configuration not stated), the T/C is, setting by setting: under setting [1], 88 % of control; under setting [2], 93 % of control.

Consider `N#Cc1c(-c2ccc(Cl)cc2)n(O)c2ccccc12`, for which the T/C runs as follows: under setting [3], 96 % of control; under setting [4], 100 % of control; under setting [5], 96 % of control.

As to `CCCCCOc1cc(C(C)=O)cc(OC)c1OC(=O)c1cc([N+](=O)[O-])cc([N+](=O)[O-])c1`, the T/C (dose: 100.0 mg/kg/injection, schedule: Q01DX009 (ip), vehicle: saline with Tween-80) is 94 % of control; the T/C (dose: 200.0 mg/kg/injection, schedule: Q01DX009 (ip), vehicle: saline with Tween-80) was 94 % of control; the T/C (dose: 400.0 mg/kg/injection, schedule: Q01DX009 (ip), vehicle: saline with Tween-80) was 102 % of control.

For the compound `COc1ccc(CO/N=C2/CC(NOCc3ccc(OC)cc3)NC(=O)N2)cc1` (configuration not stated), the T/C was 90 % of control (dose: 100.0 mg/kg/injection, schedule: Q04DX003 (ip), vehicle: saline); 90 % of control (dose: 200.0 mg/kg/injection, schedule: Q04DX003 (ip), vehicle: saline); 86 % of control (dose: 400.0 mg/kg/injection, schedule: Q04DX003 (ip), vehicle: saline).

As to `O=C(CCCC(=O)NNC(=O)Nc1ccccc1Cl)NNC(=O)Nc1ccccc1Cl`, the T/C runs as follows: under setting [6], 102 % of control; under setting [3], 96 % of control; under setting [4], 100 % of control; under setting [5], 93 % of control.

As for `CCCC(C)Cc1ccc(C(=O)O)cc1` (configuration not stated), the T/C is, setting by setting: under setting [7], 95 % of control; under setting [8], 97 % of control; under setting [9], 104 % of control; under setting [1], 103 % of control; under setting [2], 107 % of control.

`ICCC(c1ccccc1)(c1ccccc1)c1ccccc1`: the T/C under setting [6] is 108 % of control, the T/C under setting [3] is 96 % of control, the T/C under setting [4] was 96 % of control and the T/C under setting [5] is 96 % of control.

For `c1ccc(CNNCc2ccccc2)cc1`, the T/C was 102 % of control (dose: 75.0 mg/kg/injection, schedule: Q01DX009 (ip), vehicle: Klucel (hydroxypropylcellulose) (HPC)); 102 % of control under setting [8]; 109 % of control (dose: 150.0 mg/kg/injection, schedule: Q01DX009 (ip), vehicle: Klucel (hydroxypropylcellulose) (HPC)); 94 % of control under setting [1].

Take `C=CC[Si](C)(C)N1CC1`: the T/C (dose: 12.5 mg/kg/injection, schedule: Q01DX001 (ip), vehicle: carboxymethylcellulose (CMC)) was 108 % of control.

As for `NCC(O)c1ccc(OCc2ccccc2)cc1` (configuration not stated), the T/C runs as follows: under setting [3], 94 % of control; under setting [4], 103 % of control; under setting [5], 108 % of control.

`O=c1ccncn1Cc1ccccc1`: the T/C by setting is: (dose: 100.0 mg/kg/injection, schedule: Q01DX001 (ip), vehicle: Klucel (hydroxypropylcellulose) (HPC)) 100 % of control; (dose: 200.0 mg/kg/injection, schedule: Q01DX001 (ip), vehicle: Klucel (hydroxypropylcellulose) (HPC)) 97 % of control; (dose: 400.0 mg/kg/injection, schedule: Q01DX001 (ip), vehicle: Klucel (hydroxypropylcellulose) (HPC)) 91 % of control.

With `CCCCCCCCOP(=O)(N1CC1)N1CC1`, the T/C reads like this: (dose: 1.0 mg/kg/injection, schedule: Q01DX015 (ip), vehicle: saline) 94 % of control; (dose: 2.0 mg/kg/injection, schedule: Q01DX015 (ip), vehicle: saline) 95 % of control; (dose: 4.0 mg/kg/injection, schedule: Q01DX015 (ip), vehicle: saline) 97 % of control; (dose: 8.0 mg/kg/injection, schedule: Q01DX001 (ip), vehicle: saline) 119 % of control; (dose: 8.2 mg/kg/injection, schedule: Q01DX015 (ip), vehicle: saline) 163 % of control; (dose: 10.5 mg/kg/injection, schedule: Q01DX015 (ip), vehicle: saline) 165 % of control and 166 % of control. Moreover, the T/C reads like this: (dose: 12.4 mg/kg/injection, schedule: Q01DX015 (ip), vehicle: saline) 204 % of control; (dose: 16.0 mg/kg/injection, schedule: Q01DX015 (ip), vehicle: saline) 209 % of control; (dose: 18.0 mg/kg/injection, schedule: Q01DX015 (ip), vehicle: saline) 235 % of control; (dose: 18.6 mg/kg/injection, schedule: Q01DX015 (ip), vehicle: saline) 214 % of control; (dose: 28.0 mg/kg/injection, schedule: Q01DX001 (ip), vehicle: saline) 153 % of control; (dose: 33.5 mg/kg/injection, schedule: Q01DX015 (ip), vehicle: saline) 207 % of control. Besides, the T/C is 150 % of control (dose: 44.4 mg/kg/injection, schedule: Q01DX001 (ip), vehicle: saline); 92 % of control (dose: 50.0 mg/kg/injection, schedule: Q01DX015 (ip), vehicle: saline); 157 % of control and 170 % of control (dose: 66.7 mg/kg/injection, schedule: Q01DX001 (ip), vehicle: saline); 213 % of control (dose: 150.0 mg/kg/injection, schedule: Q01DX001 (ip), vehicle: saline).

Consider `Cc1ccc(COC(=O)c2ccccc2)cc1`, for which the T/C under setting [7] was 101 % of control; the T/C under setting [8] is 103 % of control; the T/C under setting [9] is 98 % of control; the T/C under setting [1] was 97 % of control; the T/C (dose: 400.0 mg/kg/injection, schedule: Q01DX009 (ip), vehicle: Klucel (hydroxypropylcellulose) (HPC)) was 95 % of control; the T/C under setting [2] is 97 % of control.

As to `[N-]=C(CC(=O)c1ccccc1)c1ccccc1.[N-]=C(CC(=O)c1ccccc1)c1ccccc1.[Ni+2]`, the T/C was 90 % of control (dose: 12.5 mg/kg/injection, schedule: Q04DX003 (ip), vehicle: Klucel (hydroxypropylcellulose) (HPC)); 93 % of control (dose: 25.0 mg/kg/injection, schedule: Q04DX003 (ip), vehicle: Klucel (hydroxypropylcellulose) (HPC)); 91 % of control (dose: 50.0 mg/kg/injection, schedule: Q04DX003 (ip), vehicle: Klucel (hydroxypropylcellulose) (HPC)); 90 % of control under setting [8]; 93 % of control under setting [1]; 90 % of control under setting [2].

Take `O=NN(Cc1ccccc1)P(=O)(O)Oc1ccccc1`: the T/C runs as follows: (dose: 4.5 mg/kg/injection, schedule: Q01DX001 (ip), vehicle: saline) 100 % of control; (dose: 9.0 mg/kg/injection, schedule: Q01DX001 (ip), vehicle: saline) 97 % of control; (dose: 13.0 mg/kg/injection, schedule: Q01DX001 (ip), vehicle: saline) 100 % of control; (dose: 26.0 mg/kg/injection, schedule: Q01DX001 (ip), vehicle: saline) 97 % of control; (dose: 40.0 mg/kg/injection, schedule: Q01DX001 (ip), vehicle: saline) 114 % of control; (dose: 60.0 mg/kg/injection, schedule: Q01DX001 (ip), vehicle: saline) 101 % of control. In addition, the T/C by setting is: (dose: 93.0 mg/kg/injection, schedule: Q01DX001 (ip), vehicle: saline) 97 % of control; (dose: 187.0 mg/kg/injection, schedule: Q01DX001 (ip), vehicle: saline) 94 % of control; (dose: 250.0 mg/kg/injection, schedule: Q01DX001 (ip), vehicle: saline) 95 % of control; (dose: 375.0 mg/kg/injection, schedule: Q01DX001 (ip), vehicle: saline) 92 % of control; (dose: 500.0 mg/kg/injection, schedule: Q01DX001 (ip), vehicle: saline) 100 % of control; (dose: 750.0 mg/kg/injection, schedule: Q01DX001 (ip), vehicle: saline) 95 % of control.

Consider `CN(C)CCN=C(N)N[N+](=O)[O-]`, for which the T/C by setting is: (dose: 100.0 mg/kg/injection, schedule: Q04DX002 (ip), vehicle: saline) 110 % of control; (dose: 200.0 mg/kg/injection, schedule: Q04DX002 (ip), vehicle: saline) 96 % of control; (dose: 400.0 mg/kg/injection, schedule: Q04DX002 (ip), vehicle: saline) 100 % of control.

Consider `CCOC(=O)NN(C(=O)OCC)c1c(NN)n(C)c(=O)n(C)c1=O`, for which the T/C is, setting by setting: (dose: 75.0 mg/kg/injection, schedule: Q04DX003 (ip), vehicle: saline) 107 % of control; (dose: 150.0 mg/kg/injection, schedule: Q04DX003 (ip), vehicle: saline) 93 % of control; (dose: 300.0 mg/kg/injection, schedule: Q04DX003 (ip), vehicle: saline) 91 % of control.
